Key:
potassium arsenate = compound: O=[As]([O-])(O)O.[K+] [potassium arsenate]; test: thermal stability z-score vs DMSO; higher = more thermally stabilized by treatment; settings: HeLa; arsenate concentration 1 mM
Experimental: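 Cellular thermal proteome profiling in HeLa cells treated with 1 mM arsenate for 1 h (DMSO pretreatment), heated to ten temperatures (37-66.3 °C). Soluble protein was quantified by TMT mass spectrometry relative to DMSO controls; the thermal stability score was transformed to a z-score; mean of n = 3 experiments.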

lipoamide = compound: NC(=O)CCCCC1CCSS1 [lipoamide]; test: as above; settings: HeLa, lipoamide concentration 100 µM
Experimental: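 Cellular thermal proteome profiling in HeLa cells. Cells were treated with 100 µM lipoamide for 1 h, with or without 1 mM arsenate for a further 1 h, then heated to ten temperatures (37-66.3 °C), and soluble protein was quantified by TMT mass spectrometry relative to 0.1% DMSO controls. The thermal stability score (sum of log2 fold changes minus the abundance score) was transformed to a z-score; mean of n = 3 experiments.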

[1] = arsenate co-treatment: 1 mM arsenate 1 h
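Also: each temperature applied for 3 min, abundance score taken as mean log2 fold change at the two lowest temperatures, z-score obtained by mean subtraction and division by SD.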

UniProt Q15390, sequence (Q15390 whole entry): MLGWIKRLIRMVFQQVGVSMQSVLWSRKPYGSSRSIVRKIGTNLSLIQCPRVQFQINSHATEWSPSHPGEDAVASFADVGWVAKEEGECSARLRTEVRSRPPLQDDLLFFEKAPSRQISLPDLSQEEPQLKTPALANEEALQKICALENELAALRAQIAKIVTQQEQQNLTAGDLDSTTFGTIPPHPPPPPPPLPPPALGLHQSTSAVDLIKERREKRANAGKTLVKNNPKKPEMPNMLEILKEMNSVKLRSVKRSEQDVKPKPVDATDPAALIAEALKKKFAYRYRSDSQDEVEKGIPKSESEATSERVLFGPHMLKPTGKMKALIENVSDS
UniProt P11234, sequence (P11234 whole entry): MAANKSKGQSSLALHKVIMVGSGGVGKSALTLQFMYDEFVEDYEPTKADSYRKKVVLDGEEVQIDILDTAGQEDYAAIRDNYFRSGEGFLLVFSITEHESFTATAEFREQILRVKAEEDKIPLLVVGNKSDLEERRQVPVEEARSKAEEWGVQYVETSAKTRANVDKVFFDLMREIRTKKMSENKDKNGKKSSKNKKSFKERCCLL
UniProt Q9C0D3, sequence (Q9C0D3 whole entry): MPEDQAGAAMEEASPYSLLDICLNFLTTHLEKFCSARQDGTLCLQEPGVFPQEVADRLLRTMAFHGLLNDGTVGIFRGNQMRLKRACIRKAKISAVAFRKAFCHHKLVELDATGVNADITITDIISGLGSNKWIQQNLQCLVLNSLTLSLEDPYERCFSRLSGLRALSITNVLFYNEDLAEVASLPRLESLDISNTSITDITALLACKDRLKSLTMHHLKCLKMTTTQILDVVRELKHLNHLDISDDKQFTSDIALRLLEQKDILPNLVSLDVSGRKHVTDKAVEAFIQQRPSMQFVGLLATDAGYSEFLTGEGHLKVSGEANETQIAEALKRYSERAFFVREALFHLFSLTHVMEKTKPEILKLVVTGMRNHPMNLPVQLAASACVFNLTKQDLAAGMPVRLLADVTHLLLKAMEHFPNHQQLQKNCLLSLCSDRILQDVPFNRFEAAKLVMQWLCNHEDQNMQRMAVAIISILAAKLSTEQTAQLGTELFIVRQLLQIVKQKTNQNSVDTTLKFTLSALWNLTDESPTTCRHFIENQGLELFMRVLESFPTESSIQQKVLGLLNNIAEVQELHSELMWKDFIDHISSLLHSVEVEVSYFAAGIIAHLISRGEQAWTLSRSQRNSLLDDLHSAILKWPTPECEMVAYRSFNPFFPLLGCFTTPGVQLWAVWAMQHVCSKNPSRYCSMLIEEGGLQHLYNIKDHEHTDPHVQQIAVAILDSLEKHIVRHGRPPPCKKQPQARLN
UniProt Q96SB8, sequence (Q96SB8 whole entry): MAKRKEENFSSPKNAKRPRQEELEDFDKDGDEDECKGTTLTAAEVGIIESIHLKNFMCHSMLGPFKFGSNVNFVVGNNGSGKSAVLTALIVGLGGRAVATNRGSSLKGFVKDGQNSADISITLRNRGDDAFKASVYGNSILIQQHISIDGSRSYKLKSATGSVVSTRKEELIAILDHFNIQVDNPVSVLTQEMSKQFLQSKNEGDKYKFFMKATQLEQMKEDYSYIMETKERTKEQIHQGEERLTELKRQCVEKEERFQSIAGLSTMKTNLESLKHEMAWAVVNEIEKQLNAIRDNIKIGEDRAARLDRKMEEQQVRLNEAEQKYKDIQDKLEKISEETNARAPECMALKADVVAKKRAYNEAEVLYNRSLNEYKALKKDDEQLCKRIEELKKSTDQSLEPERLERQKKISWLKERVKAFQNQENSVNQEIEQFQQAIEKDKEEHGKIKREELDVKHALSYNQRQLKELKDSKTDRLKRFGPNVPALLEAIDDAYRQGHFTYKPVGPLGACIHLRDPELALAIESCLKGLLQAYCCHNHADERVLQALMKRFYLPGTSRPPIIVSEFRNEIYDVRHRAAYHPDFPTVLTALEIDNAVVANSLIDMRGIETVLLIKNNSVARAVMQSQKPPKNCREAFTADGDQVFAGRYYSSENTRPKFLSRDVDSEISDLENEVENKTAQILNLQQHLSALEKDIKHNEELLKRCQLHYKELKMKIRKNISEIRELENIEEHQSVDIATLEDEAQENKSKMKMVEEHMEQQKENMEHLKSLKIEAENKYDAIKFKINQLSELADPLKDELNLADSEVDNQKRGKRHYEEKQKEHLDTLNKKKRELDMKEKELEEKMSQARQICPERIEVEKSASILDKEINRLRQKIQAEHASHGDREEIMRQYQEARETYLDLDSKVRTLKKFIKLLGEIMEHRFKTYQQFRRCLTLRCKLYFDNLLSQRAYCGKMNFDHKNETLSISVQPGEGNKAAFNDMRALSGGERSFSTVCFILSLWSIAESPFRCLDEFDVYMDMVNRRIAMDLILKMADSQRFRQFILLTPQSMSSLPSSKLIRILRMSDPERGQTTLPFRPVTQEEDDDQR
UniProt Q8TBA6, sequence (Q8TBA6 whole entry): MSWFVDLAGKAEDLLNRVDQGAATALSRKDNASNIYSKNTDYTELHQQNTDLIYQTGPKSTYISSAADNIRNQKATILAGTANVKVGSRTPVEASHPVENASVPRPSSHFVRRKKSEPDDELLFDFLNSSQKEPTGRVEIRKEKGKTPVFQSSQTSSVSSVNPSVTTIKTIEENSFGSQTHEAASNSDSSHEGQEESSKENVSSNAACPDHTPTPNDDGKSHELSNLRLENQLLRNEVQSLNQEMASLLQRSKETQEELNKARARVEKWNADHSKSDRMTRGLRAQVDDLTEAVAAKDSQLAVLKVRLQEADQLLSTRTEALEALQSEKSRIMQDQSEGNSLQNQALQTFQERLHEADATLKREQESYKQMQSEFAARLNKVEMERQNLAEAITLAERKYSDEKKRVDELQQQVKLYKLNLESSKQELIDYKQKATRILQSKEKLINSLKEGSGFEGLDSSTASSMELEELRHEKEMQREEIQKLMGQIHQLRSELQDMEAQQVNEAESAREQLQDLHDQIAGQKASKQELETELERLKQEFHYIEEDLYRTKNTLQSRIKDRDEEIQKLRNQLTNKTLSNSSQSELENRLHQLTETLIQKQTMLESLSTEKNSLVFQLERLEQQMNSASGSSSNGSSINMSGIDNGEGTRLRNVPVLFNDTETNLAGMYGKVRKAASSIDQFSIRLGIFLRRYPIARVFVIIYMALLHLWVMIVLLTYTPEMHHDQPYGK
UniProt P30048, sequence (P30048 whole entry): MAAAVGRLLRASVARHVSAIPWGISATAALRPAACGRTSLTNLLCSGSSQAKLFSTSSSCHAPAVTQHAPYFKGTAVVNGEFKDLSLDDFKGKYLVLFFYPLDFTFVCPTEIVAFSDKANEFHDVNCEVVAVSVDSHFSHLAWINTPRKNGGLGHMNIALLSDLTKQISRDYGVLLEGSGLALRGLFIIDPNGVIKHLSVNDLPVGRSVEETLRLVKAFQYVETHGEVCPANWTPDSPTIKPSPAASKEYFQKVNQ
UniProt P80723, sequence (P80723 whole entry): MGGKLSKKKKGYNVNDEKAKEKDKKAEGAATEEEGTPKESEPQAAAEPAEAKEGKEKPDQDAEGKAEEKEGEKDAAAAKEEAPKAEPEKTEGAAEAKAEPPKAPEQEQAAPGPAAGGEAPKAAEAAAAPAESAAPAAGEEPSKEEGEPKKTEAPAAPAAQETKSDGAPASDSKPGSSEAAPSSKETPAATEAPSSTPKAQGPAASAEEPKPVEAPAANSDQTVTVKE
UniProt Q6PIW4, sequence (Q6PIW4 whole entry): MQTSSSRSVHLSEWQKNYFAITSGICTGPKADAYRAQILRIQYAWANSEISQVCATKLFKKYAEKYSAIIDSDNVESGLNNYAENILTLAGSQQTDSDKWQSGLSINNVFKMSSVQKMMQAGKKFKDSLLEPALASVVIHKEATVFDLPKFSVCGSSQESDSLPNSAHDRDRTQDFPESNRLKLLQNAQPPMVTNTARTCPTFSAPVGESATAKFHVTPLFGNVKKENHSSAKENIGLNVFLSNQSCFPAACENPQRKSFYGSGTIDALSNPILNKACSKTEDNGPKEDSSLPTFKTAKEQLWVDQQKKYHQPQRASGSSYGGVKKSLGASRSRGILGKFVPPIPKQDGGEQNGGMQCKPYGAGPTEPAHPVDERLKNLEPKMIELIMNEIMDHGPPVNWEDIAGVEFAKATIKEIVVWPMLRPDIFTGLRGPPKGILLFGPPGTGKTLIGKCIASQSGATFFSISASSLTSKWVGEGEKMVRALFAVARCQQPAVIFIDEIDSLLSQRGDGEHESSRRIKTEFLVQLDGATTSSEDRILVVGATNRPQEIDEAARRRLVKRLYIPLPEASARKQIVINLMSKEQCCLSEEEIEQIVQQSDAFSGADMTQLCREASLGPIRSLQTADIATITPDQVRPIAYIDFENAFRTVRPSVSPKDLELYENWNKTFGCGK
UniProt P61586, sequence (P61586 whole entry): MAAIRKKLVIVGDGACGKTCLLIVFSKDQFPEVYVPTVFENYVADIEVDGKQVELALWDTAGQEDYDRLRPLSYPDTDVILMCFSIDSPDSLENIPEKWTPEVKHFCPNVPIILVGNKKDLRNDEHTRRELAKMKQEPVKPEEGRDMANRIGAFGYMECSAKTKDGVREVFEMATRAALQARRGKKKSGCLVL
UniProt Q96AJ9, sequence (Q96AJ9 whole entry): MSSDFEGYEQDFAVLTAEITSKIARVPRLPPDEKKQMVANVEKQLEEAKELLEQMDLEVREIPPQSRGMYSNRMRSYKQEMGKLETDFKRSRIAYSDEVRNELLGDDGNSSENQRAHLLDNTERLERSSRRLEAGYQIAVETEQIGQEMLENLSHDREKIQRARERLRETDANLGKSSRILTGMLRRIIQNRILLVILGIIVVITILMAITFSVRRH
UniProt Q6P1K2, sequence (Q6P1K2 whole entry): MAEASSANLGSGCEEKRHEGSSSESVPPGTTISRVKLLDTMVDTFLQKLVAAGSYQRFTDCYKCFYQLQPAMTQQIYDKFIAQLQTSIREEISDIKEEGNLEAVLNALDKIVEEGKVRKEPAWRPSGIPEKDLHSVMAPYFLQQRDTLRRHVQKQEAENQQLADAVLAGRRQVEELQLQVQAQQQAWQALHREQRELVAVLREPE

Target	thermal stability z-score (potassium arsenate)	thermal stability z-score (lipoamide; [1])	thermal stability z-score (lipoamide; arsenate co-treatment: none)
PRDX3 (UniProt P30048)	-0.448	0.429	0.812
RICTOR (UniProt Q6R327)	0.166	-1.23	-0.161
SART1 (UniProt O43290)	-2.05	0.898	0.374
CIRBP (UniProt Q14011)	-0.194	0.435	-0.192
CASP2 (UniProt P42575)	-1	-0.172	0.304
FASN (UniProt P49327)	-1.1	0.217	0.252
CEP170 (UniProt Q5SW79)	1.21	-0.0596	-0.496
KIAA1522 (UniProt Q9P206)	0.286	-0.388	-0.0277
SRGAP1 (UniProt Q7Z6B7)	-0.0461	-0.0604	-0.163
LRRC8A (UniProt Q8IWT6)	-0.275	0.614	0.234
RHOA (UniProt P61586)	0.103	0.316	0.411
ATG101 (UniProt Q9BSB4)	0.678	-0.67	-1.42
TIA1 (UniProt P31483)	-1.08	-0.376	0.000117
DDHD1 (UniProt Q8NEL9)	0.0595	-0.143	-0.142
SGF29 (UniProt Q96ES7)	-1.03	0.571	0.347
GIPC1 (UniProt O14908)	-0.251	-0.301	-0.267
TAF7 (UniProt Q15545)	0.641	-0.3	-0.347
CTBP2 (UniProt P56545)	0.448	0.985	-0.0596
SOD2 (UniProt P04179)	0.195	0.512	0.261
SMC6 (UniProt Q96SB8)	0.067	-0.138	0.113
BPNT1 (UniProt O95861)	-1.66	-0.0659	-0.197
COG2 (UniProt Q14746)	0.6	0.0711	-0.137
KBTBD4 (UniProt Q9NVX7)	0.259	0.389	-0.408
ITPA (UniProt Q9BY32)	0.199	0.939	0.734
VPS11 (UniProt Q9H270)	0.734	-0.214	-0.578
GOLGA5 (UniProt Q8TBA6)	0.197	0.419	0.582
MYH14 (UniProt Q7Z406)	0.458	0.363	0.126
PMF1 (UniProt Q6P1K2)	0.367	0.0314	-0.0395

Target	thermal stability z-score (potassium arsenate)	thermal stability z-score (lipoamide; [1])	thermal stability z-score (lipoamide; arsenate co-treatment: none)
FIGNL1 (UniProt Q6PIW4)	-1	-0.113	-0.0699
PTRH1 (UniProt Q86Y79)	-0.214	0.0851	0.0188
RPL27 (UniProt P61353)	-0.612	0.459	0.431
MTFR1 (UniProt Q15390)	0.165	-0.301	0.52
RALB (UniProt P11234)	0.0205	0.25	-0.129
DLGAP5 (UniProt Q15398)	-0.0873	-0.352	-0.378
PARP9 (UniProt Q8IXQ6)	-0.0858	-0.239	-0.1
PEG10 (UniProt Q86TG7)	-0.109	-0.289	-0.464
CRELD2 (UniProt Q6UXH1)	-0.0409	-6.65	-6.33
GMNN (UniProt O75496)	0.576	0.365	0.809
UBFD1 (UniProt O14562)	0.066	-0.0131	-0.0151
GRPEL2 (UniProt Q8TAA5)	0.107	-0.105	-0.123
C9ORF78 (UniProt Q9NZ63)	0.106	0.058	0.278
BNIP2 (UniProt Q12982)	0.641	1.13	0.0699
UBE2T (UniProt Q9NPD8)	-0.137	0.245	0.447
ASCC2 (UniProt Q9H1I8)	1.51	-0.0905	0.388
ABHD6 (UniProt Q9BV23)	-0.179	-1.6	-1.07
ZYG11B (UniProt Q9C0D3)	-0.142	-0.0727	-0.16
CLPB (UniProt Q9H078)	-0.0952	-0.507	-0.275
BASP1 (UniProt P80723)	-0.142	0.861	0.592
MRAS (UniProt O14807)	0.0682	0.488	-0.67
NEU1 (UniProt Q99519)	0.921	-0.363	-0.25
LAMTOR2 (UniProt Q9Y2Q5)	0.135	0.266	0.19
TVP23C|TVP23B	0.27	0.653	1.19
GRIPAP1 (UniProt Q4V328)	1.53	0.163	0.254
VTI1A (UniProt Q96AJ9)	-0.0839	0.054	0.419
MORF4L1 (UniProt Q9UBU8)	0.343	-0.486	0.0693
